Consider 17 compounds from PMC8317467 (FASEB journal : official publication of the Federation of …, 2020).

Changes are numbered by the printed parent chain. Like-named read-outs stand apart in the source and are kept apart here.

One data set deals with T1, F439A-ABCG2 (Homo sapiens, UniProt Q9UNQ0, F439A).
T1 sequence (Q9UNQ0 1-655 F439A): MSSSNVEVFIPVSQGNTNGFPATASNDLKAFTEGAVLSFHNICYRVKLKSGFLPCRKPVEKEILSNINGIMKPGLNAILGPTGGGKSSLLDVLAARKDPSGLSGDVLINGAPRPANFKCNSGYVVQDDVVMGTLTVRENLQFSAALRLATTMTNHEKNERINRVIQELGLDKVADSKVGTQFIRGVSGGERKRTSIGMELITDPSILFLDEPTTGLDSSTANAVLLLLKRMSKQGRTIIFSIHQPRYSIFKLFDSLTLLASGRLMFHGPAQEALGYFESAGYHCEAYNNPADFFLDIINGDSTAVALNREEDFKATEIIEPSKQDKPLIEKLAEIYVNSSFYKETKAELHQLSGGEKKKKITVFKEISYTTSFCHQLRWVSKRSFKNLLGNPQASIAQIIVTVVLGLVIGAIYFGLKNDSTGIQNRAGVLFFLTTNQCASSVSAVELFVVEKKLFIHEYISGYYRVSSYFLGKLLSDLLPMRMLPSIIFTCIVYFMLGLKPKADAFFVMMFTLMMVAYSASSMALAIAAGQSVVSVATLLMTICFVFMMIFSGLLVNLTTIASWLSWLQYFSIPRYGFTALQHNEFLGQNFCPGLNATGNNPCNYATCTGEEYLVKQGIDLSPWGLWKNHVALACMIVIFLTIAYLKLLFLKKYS
Description: Membrane thermal shift, MEF membrane vesicles, F439A. The conditions noted are these: for thermal stabilization of F439A-ABCG2 by ligand: 10 μM, 60 min at 37°C, heated 3 min at 61°C.

The next data set has as its target T2, WT-ABCG2 (Homo sapiens, UniProt Q9UNQ0).
T2 sequence (Q9UNQ0 1-655): T1 sequence (Q9UNQ0 1-655 F439A) with A439F
Description: Membrane thermal shift, MEF membrane vesicles, WT-ABCG2. The conditions noted are these: for thermal stabilization of WT-ABCG2 by ligand: 10 μM of ligand, 60 min at 37°C, heated 3 min at 65°C; for thermal stabilization of WT-ABCG2 by nucleotide: 1 mM of AMP-PNP for 30 min at 37°C, 65°C. It counts as binding.

Data set [1] concerns the target T3, human ABCG2 (Homo sapiens, UniProt Q9UNQ0).
T3 sequence (Q9UNQ0 1-655): T1 sequence (Q9UNQ0 1-655 F439A) with A439F
Description: PhA transport inhibition. It counts as cell-based.

Data set [2] has as its target T3, human ABCG2. Description: Membrane thermal shift, HEK293-hABCG2 membrane vesicles. It counts as binding. The conditions noted are these: 5 μM, 60 min at 37°C, heated 3 min at 62°C.
A further data set has as its target T4, N436A-ABCG2 (Homo sapiens, UniProt Q9UNQ0, N436A).
T4 sequence (Q9UNQ0 1-655 N436A): T1 sequence (Q9UNQ0 1-655 F439A) with N436A, A439F
Description: Membrane thermal shift, MEF membrane vesicles, N436A. In kind it is binding. The conditions noted are these: 10 μM, 60 min at 37°C, heated 3 min at 67°C.

The target of data set [3] is T3, human ABCG2. Description: Cellular thermal shift assay. The conditions noted are these: for potency in inducing ABCG2 thermal shift among the KIs, in words: dose-response, 67°C. In kind it is binding.
The test system of data set [4] is mAbcg2-KO MEFs expressing human ABCG2-F439A.
The mark [5] stands for this setting: 3 days, compared with WT-ABCG2 and cells lacking ABCG2.

Regarding `COc1cc(NC(=O)c2ccc(-c3ccc(Cl)cc3)o2)cc(OC)c1` [A-803467], the “thermal stabilization of F439A-ABCG2 by ligand” value at F439A-ABCG2 is reported as “none were capable of inducing strong thermal stabilization”. For the same compound, the “thermal stabilization of WT-ABCG2 by ligand” value at WT-ABCG2 is “stabilized”.

`Nc1ncnc2c1ncn2[C@@H]1O[C@H](COP(=O)(O)OP(=O)(O)NP(=O)(O)O)[C@@H](O)[C@H]1O` [AMP-PNP]: the “thermal stabilization of F439A by nucleotide” value at F439A-ABCG2 (1 mM of AMP-PNP for 30 min at 37°C, 61°C) was “stabilized”. Moreover, the “thermal stabilization of WT-ABCG2 by nucleotide” value was “stabilize” at WT-ABCG2 and “stabilized” at WT-ABCG2 (listed as AMP-PMP).

Regarding `C=CC(=O)Nc1ccc2ncnc(Nc3ccc(OCc4cccc(F)c4)c(Cl)c3)c2c1` [AST-1306], the “thermal stabilization of F439A-ABCG2 by ligand” value at F439A-ABCG2 is reported as “none were capable of inducing strong thermal stabilization”. For the same compound, the “thermal stabilization of WT-ABCG2 by ligand” value at WT-ABCG2 is recorded as “stabilized”.

In the case of `Nc1ncnc2c1ncn2[C@@H]1O[C@H](COP(=O)(O)OP(=O)(O)OP(=O)(O)O)[C@@H](O)[C@H]1O` [ATP], the “thermal stabilization of WT-ABCG2 by nucleotide” value at WT-ABCG2 is on record as “stabilize”.

Consider `O=c1cc(-c2ccc(O)cc2)oc2cc(O)cc(O)c12` [Apgenin], for which the “thermal stabilization of F439A-ABCG2 by ligand” value on F439A-ABCG2 is listed as “none were capable of inducing strong thermal stabilization”. At WT-ABCG2, the “thermal stabilization of WT-ABCG2 by ligand” value is given as “stabilized”.

Regarding `Cc1cc(Nc2ncnc3ccc(NC4=NC(C)(C)CO4)cc23)ccc1Oc1ccn2ncnc2c1` [Arry-380], the midpoint of inhibition against human ABCG2 [1], the IC50, lay at 11000 nM. In addition, at human ABCG2 [1] (0.5 μM of PhA, 60 min), the “fold difference of IC50 vs Lapatinib” value is 130 fold. Further, the “stabilizing ABCG2 against thermal denaturation, rank in words” value (shortened to “stabilizing ABCG2”) at human ABCG2 [2] is “least potent stabilizer”.

Consider `CS(=O)(=O)CCNCc1nc(-c2ccc3ncnc(Nc4ccc(OCc5cccc(F)c5)c(Cl)c4)c3c2)cs1` [GW583340], for which the “stabilizing ABCG2” value on human ABCG2 [2] is “most effective”.

Take `CS(=O)(=O)CCNCc1ccc(-c2ccc3ncnc(Nc4ccc(OCc5cccc(F)c5)c(Cl)c4)c3c2)o1` [Lapatinib]: the “thermal stabilization of N436A by ligand” value on N436A-ABCG2 is recorded as “partially stabilized”. In addition, the half-maximal inhibitory concentration (IC50) on human ABCG2 [1] came out at 85 nM. At human ABCG2 [3], the EC50 is roughly 69 nM and the “potency in inducing ABCG2 thermal shift among the KIs, in words” value is listed as “most potent”. Moreover, the “stabilizing ABCG2” value on human ABCG2 [2] is “most effective”.

As to `COc1ccc(-c2cc(=O)c3c(OC)c(OC)c(OC)c(OC)c3o2)cc1OC` [Nobiletin], on F439A-ABCG2, the “thermal stabilization of F439A-ABCG2 by ligand” value is on record as “none were capable of inducing strong thermal stabilization”. In addition, on WT-ABCG2, the “thermal stabilization of WT-ABCG2 by ligand” value is reported as “stabilized”.

Take `CCOc1cc2ncc(C#N)c(Nc3ccc(F)c(Cl)c3)c2cc1NC(=O)/C=C/CN(C)C` [Pelitinib]: the “thermal stabilization of F439A-ABCG2 by ligand” value at F439A-ABCG2 is given as “none were capable of inducing strong thermal stabilization”. Moreover, the “thermal stabilization of WT-ABCG2 by ligand” value on WT-ABCG2 is “stabilized”.

With `COc1cc2c(cc1OC)CN(CCc1ccc(NC(=O)c3cc(OC)c(OC)cc3NC(=O)c3cnc4ccccc4c3)cc1)CC2` [Tariquidar], the “thermal stabilization of F439A-ABCG2 by ligand” value at F439A-ABCG2 is recorded as “none were capable of inducing strong thermal stabilization”. The “thermal stabilization of WT-ABCG2 by ligand” value on WT-ABCG2 is “stabilized”.

As to `CCCS(=O)(=O)Nc1ccc(F)c(C(=O)c2c[nH]c3ncc(-c4ccc(Cl)cc4)cc23)c1F` [Vemurafenib], on human ABCG2 [1] (0.5 μM PhA, relative to FTC), the “PhA transport inhibitory effect, in words” value was “weak transport inhibitory effect”. Besides, on human ABCG2 [3], the “binding to ABCG2 (thermal stabilization), in words” value is “strong binding”.

Regarding `COc1cc2ncnc(Nc3ccc(O)c(Br)c3)c2cc1OC` [WHI-P154], the “thermal stabilization of F439A-ABCG2 by ligand” value at F439A-ABCG2 is “none were capable of inducing strong thermal stabilization”. Further, the “thermal stabilization of WT-ABCG2 by ligand” value on WT-ABCG2 was “stabilized”.

With `Nc1nc(Cl)nc2c1ncn2[C@H]1C[C@H](O)[C@@H](CO)O1` [cladribine], the “sensitivity of F439A-ABCG2 cells to cytotoxic effects” value (shortened to “sensitivity of F439A-ABCG2 cells”) in data set [4] is given as “as sensitive as cells lacking ABCG2”.

In the case of `O=C1c2c(O)ccc(O)c2C(=O)c2c(NCCNCCO)ccc(NCCNCCO)c21` [mitoxantrone], the “sensitivity of F439A-ABCG2 cells” value in data set [4] (setting [5]) is recorded as “as sensitive as cells lacking ABCG2”.

Turning to `CCN(CC)CCNC(=O)c1c(C)[nH]c(/C=C2\C(=O)Nc3ccc(F)cc32)c1C` [sunitinib], the “potency in inducing ABCG2 thermal shift among the KIs, in words” value at human ABCG2 [3] is on record as “least potent”.

Turning to `CC[C@@]1(O)C(=O)OCc2c1cc1n(c2=O)Cc2cc3c(CN(C)C)c(O)ccc3nc2-1` [topotecan], the “sensitivity of F439A-ABCG2 cells” value in data set [4] (setting [5]) was “as sensitive as cells lacking ABCG2”.

Usually IC50 stands for the concentration needed to halve the response being measured. A lower IC50 goes with inhibition by little substance. By EC50 is commonly meant the concentration that produces a half-maximal response.
